Here are results for 22 compounds from patent US4724237A, “2-substituted-aminomethyl-1,4-benzodiazepines” (Merck & Co., Inc., priority 1984, dated 1988).

One test deals with kappa receptor. The conditions noted are these: D. Roemer et al., Nature, 298, 759 (1982); cited from earlier work.
The subject of the next test is rats. Conditions: J. E. Morley et al.; cited from earlier work.
For test [1] the following is noted: in words; cited from earlier work.
Another test has as its system CCK-receptor. Conditions: structure-function studies, in words; cited from earlier work.
The next test concerns the target T1, CCK receptor (pancreas) (Rattus norvegicus, UniProt P30551).
T1 construct: The whole pancreas of a male Sprague-Dawley rat (200-350 g); from tissue; host or cells: whole pancreas of male Sprague-Dawley rat, washed membrane homogenate
T1 sequence (P30551 1-444): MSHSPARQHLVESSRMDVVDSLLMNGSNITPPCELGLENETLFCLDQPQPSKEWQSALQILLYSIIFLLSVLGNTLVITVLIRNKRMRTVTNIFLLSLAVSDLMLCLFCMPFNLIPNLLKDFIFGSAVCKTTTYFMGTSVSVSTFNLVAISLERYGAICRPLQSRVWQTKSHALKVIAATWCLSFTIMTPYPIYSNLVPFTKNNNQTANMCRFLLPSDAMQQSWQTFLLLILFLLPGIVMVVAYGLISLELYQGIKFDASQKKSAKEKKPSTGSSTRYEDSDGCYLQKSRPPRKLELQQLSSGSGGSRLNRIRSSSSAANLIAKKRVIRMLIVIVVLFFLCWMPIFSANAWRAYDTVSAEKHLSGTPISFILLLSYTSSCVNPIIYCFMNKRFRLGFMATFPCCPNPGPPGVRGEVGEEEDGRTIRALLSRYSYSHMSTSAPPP
Kind of test: CCK receptor binding (pancreas) method, inhibition of ^125 I-CCK-33 binding. Also noted: species or system male Sprague-Dawley rat. The conditions noted are these: for effect on the ^125 I-CCK receptor binding assay: additional protease inhibitors in the assay buffer. An excerpt:
(§1) Screening of the novel compounds according to the present invention to determine biological activity and obtain an IC50 value for them, in order to identify significant CCK-antagonism, may be accomplished using an ^125 I-CCK receptor binding assay and in vitro isolated tissue preparations. These tests involve the following:
CCK receptor binding (pancreas) method
CCK-33 was radiolabeled with ^125 I-Bolton Hunter reagent (2000 Ci/mmole), as described by Sankara et al. (J. Biol. Chem., 254, 9349-9351, 1979).
The whole pancreas of a male Sprague-Dawley rat (200-350 g), which had been sacrificed by decapitation, was dissected free of fat tissue and homogenized in 20 volumes of ice-cold 50 mM Tris HCl (pH 7.7 at 25° C.) with a Brinkmann Polytron PT-10. The homogenates were centrifuged at 48,000 g for 10 minutes, then the resulting pellets were resuspended in Tris Buffer, centrifuged as above, and resuspended in 200 volumes of binding assay buffer (50 mM Tris HCl, pH 7.7 at 25° C., 5 mM dithiothreitol, 0.1 mM bacitracin, 1.2 mM phenylmethane sulfonyl fluoride and 0.5 mM o-phenanthroline).
All assays were run in duplicate or triplicate, and the reaction mixtures were incubated at 37° C. for 30 minutes and centrifuged in a Beckman Microfuge (4 minutes) immediately after adding 1 ml of ice-cold incubation buffer. The supernatant was aspirated and discarded, and the pellets were counted with a Beckman Gamma 5000.

In the next test the target is T2, CCK receptor (brain) (Cavia porcellus, UniProt H0VZC5).
T2 construct: The cerebral cortex was dissected and used as a receptor source; from tissue; host or cells: cerebral cortex of male Hartley guinea pig, membrane homogenate
Kind of test: CCK receptor binding (brain) method, inhibition of ^125 I-CCK-33 binding. Further details: species or system male Hartley guinea pig. As to the method:
as §1
CCK receptor binding (brain) method
CCK-33 was radiolabeled and the binding was performed according to the description for the pancreas method, with modifications according to Saito et al., J. Neurochem., 37, 483-490, 1981.
Male Hartley guinea pigs (300-500 g) were sacrificed by decapitation, and the brains were removed and placed in ice-cold 50 mM Tris HCl (Trizma-7.4)[pH 7.4 at 25° C.]. The cerebral cortex was dissected and used as a receptor source and each gram of fresh guinea pig brain tissue was homogenized in 10 ml of Tris/Trizma buffer with a Brinkman polytron PT-10. The homogenates were centrifuged at 42,000 g for 15 minutes, then the resulting pellets were resuspended in 80 volumes of binding assay buffer (10 mM N-2-hydroxy-ethyl-piperazine-N'-2-ethanesulfonic acid (HEPES), 5 mM MgCl2, 1 mM ethylene glycol-bis-(β-amino-ethyl-ether-N,N'-tetraacetic acid (EGTA), 0.4% BSA and 0.25 mg/ml bacitracin, pH 6.5).
The remainder of the binding assay method was as described for the pancreas method, except that the reaction mixtures were incubated at 25° C. for 2 hours before centrifugation.

[2] abbreviates: concentration required to cause inhibition of 50% of the ^125 I-CCK binding, pancreas, 37° C., 30 minutes.

Where a name gives a salt, the structure may show the parent alone. Read-outs that look alike come from different tables or passages of the source. Square brackets hold non-standard residues; d marks the D form. Peptide text beside a SMILES is read from it. * marks the point of attachment. sY = N[C@@H](Cc1ccc(OS(=O)(=O)O)cc1)C(=O)O; Cbz = O=C(OCc1ccccc1)*; Boc = CC(C)(C)OC(=O)*

T2 sequence (H0VZC5 entry or part of it): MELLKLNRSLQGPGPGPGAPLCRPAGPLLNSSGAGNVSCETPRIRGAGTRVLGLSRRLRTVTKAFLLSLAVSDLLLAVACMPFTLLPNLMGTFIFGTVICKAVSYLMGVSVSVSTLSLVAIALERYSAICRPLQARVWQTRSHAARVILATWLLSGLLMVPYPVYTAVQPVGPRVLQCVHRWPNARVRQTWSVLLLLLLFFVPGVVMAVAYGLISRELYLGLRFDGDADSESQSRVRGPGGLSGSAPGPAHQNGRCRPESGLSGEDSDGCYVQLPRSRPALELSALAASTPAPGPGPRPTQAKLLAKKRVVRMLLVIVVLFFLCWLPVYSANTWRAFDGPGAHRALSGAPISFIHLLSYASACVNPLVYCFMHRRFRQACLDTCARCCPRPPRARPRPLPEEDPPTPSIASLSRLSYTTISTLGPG

As to `CN1c2ccccc2C(c2ccccc2F)=NCC1CNC(=O)c1ccsc1` (stereo not drawn), the “opiate agonism, selectivity for the kappa receptor” value in the test with kappa receptor is “opiate-agonist with selectivity for the kappa receptor”. Also, the food intake result in the test on rats is “increase food intake in rats”.

Consider `CN1c2ccccc2C(c2ccccc2F)=NCC1CNC(=O)c1ccsc1` (single isomer, unassigned; (-)) [(-)-enantiomer], for which the analgesic activity entry in test [1] is listed as “preferred for high analgesic activity”.

For `CSCC[C@H](NC(=O)OC(C)(C)C)C(=O)N[C@@H](CC(=O)O)C(=O)N[C@@H](Cc1ccccc1)C(N)=O` [Boc-Met-Asp-Phe-NH2] (Boc-Met-Asp-Phe-NH2), the CCK antagonism entry with CCK-receptor is recorded as “can function as CCK antagonists”.

Consider `CSCC[C@H](NC(=O)[C@H](Cc1ccc(OS(=O)(=O)O)cc1)NC(=O)OCc1ccccc1)C(=O)NCC(=O)N[C@@H](Cc1c[nH]c2ccccc12)C(=O)N[C@@H](CCSC)C(=O)N[C@@H](CC(=O)O)C(N)=O` [Cbz-Tyr(SO3 H)-Met-Gly-Trp-Met-Asp-NH2] (Cbz-[sY]MGWMD-NH2), for which the CCK antagonism entry with CCK-receptor is given as “can function as CCK antagonists”.

Usually IC50 stands for the midpoint of a concentration-inhibition curve. For `CN1c2ccccc2C(c2ccccc2F)=NCC1CNC(=O)c1cc2ccccc2[nH]1` (stereo not drawn) [Example 1, 1-methyl-2-(2'-indolecarbonyl)aminomethyl-5-(2'-fluorophenyl)-2,3-dihydro-1H-1,4,-benzodiazepine], the IC50 on CCK receptor (pancreas) (setting [2]) amounted to 0.16 µM; on CCK receptor (brain) (read-out: IC50 CCK, Brain), 14 µM.

In the case of `CN1c2ccccc2C(c2ccccc2F)=NCC1CNC(=O)Cc1cccc2sccc12` (stereo not drawn) [Example 2, 1-methyl-2-(4-thianaphthenemethylcarbonyl)aminomethyl-5-(2'-fluorophenyl)-2,3-dihydro-1H-1,4-benzodiazepine], the values for the IC50 at CCK receptor (pancreas) (setting [2]) and on CCK receptor (brain) were 0.45 µM and 23 µM, respectively.

As to `CN1c2ccccc2C(c2ccccc2F)=NCC1CNC(=O)[C@@H](O)c1ccccc1` (stereo partly drawn) [Example 3, 1-methyl-2-(2-L-hydroxy-2-phenylacetyl)aminomethyl-5-(2'-fluorophenyl)-2,3-dihydro-1H-1,4-benzodiazepine], the IC50 at CCK receptor (pancreas) was 0.6 µM; at CCK receptor (brain) (read-out: IC50 CCK, Brain) it was about 100 µM.

`CN1c2ccccc2C(c2ccccc2F)=NCC1CNC(=O)Cc1c[nH]c2ccccc12` (stereo not drawn) [Example 4, 1-methyl-2-(1H-indol-3-yl)methylcarbonylaminomethyl-5-(2'-fluorophenyl)-2,3-dihydro-1H-1,4-benzodiazepine hydrate]: the IC50 at CCK receptor (pancreas) was determined as 1 µM; on CCK receptor (brain) (read-out: IC50 CCK, Brain), 56 µM.

On to `COC(=O)[C@H](Cc1ccccc1)NCC1CN=C(c2ccccc2F)c2ccccc2N1C` (stereo partly drawn) [Example 5, 1-methyl-2-[1-(S)-1-methoxycarbonyl-2-phenylethylamino]methyl-5-(2'-fluorophenyl)-2,3-dihydro-1H-1,4-benzodiazepine], for which the concentration for half-maximal inhibition (IC50) is 1.6 µM on CCK receptor (pancreas) and about 100 µM on CCK receptor (brain) (read-out: IC50 CCK, Brain).

As for `CN1c2ccccc2C(c2ccccc2F)=NCC1CNc1cccc(C(F)(F)F)c1` (stereo not drawn) [Example 6, 1-methyl-2-(3'-trifluoromethylphenyl)aminomethyl-5-(2'-fluorophenyl)-2,3-dihydro-1H-1,4-benzodiazepine], the IC50 at CCK receptor (pancreas) is 2.2 µM; on CCK receptor (brain) (read-out: IC50 CCK, Brain), about 100 µM.

For the compound `CN1c2ccccc2C(c2ccccc2F)=NCC1CNC(=O)[C@H](Cc1c[nH]c2ccccc12)NC(=O)OC(C)(C)C` (stereo partly drawn) [Example 7, 1-methyl-2-[2-((1,1-dimethylethoxy)carbonyl)amino-3-(1H-indol-3-yl)propanoyl]aminomethyl-5-(2'-fluorophenyl)-2,3-dihydro-1H-1,4-benzodiazepine], the figures for the concentration for half-maximal inhibition (IC50) on CCK receptor (pancreas) and at CCK receptor (brain) were 4.1 µM and 38.6 µM, respectively.

Take `CC(C)COC(=O)NCC1CN=C(c2ccccc2F)c2ccccc2N1C` (stereo not drawn) [Example 8, 1-methyl-2-[(2-methylpropoxy)carbonyl]aminomethyl-5-(2'-fluorophenyl)-2,3-dihydro-1H-1,4-benzodiazepine]: the 50% inhibitory concentration (IC50) was 5.8 µM on CCK receptor (pancreas) (setting [2]) and about 100 µM at CCK receptor (brain) (read-out: IC50 CCK, Brain).

For `CN1c2ccccc2C(c2ccccc2F)=NCC1CNC(=O)[C@@H](N)Cc1c[nH]c2ccccc12` (stereo partly drawn) [Example 9, 1-methyl-2-[2-amino-3-(1H-indol-3-yl)propanoyl]aminomethyl-5-(2'-fluorophenyl)-2,3-dihydro-1H-1,4-benzodiazepine dihydrochloride sesquihydrate], the half-maximal inhibitory concentration (IC50) at CCK receptor (pancreas) is 11.6 µM; at CCK receptor (brain), about 100 µM.

For `COC(C(=O)NCC1CN=C(c2ccccc2F)c2ccccc2N1C)(c1ccccc1)C(F)(F)F` (stereo not drawn) [Example 10, 1-methyl-2-(2-methoxy-2-trifluoromethyl-2-phenylacetyl)aminomethyl-5-(2'-fluorophenyl)-2,3-dihydro-1H-1,4-benzodiazepine], the half-inhibitory concentration (IC50) is 13 µM at CCK receptor (pancreas) (setting [2]) and about 100 µM on CCK receptor (brain).

Consider `CC(=O)NCSCC(NC(=O)OC(C)(C)C)C(=O)NCC1CN=C(c2ccccc2F)c2ccccc2N1C` [Example 11, 1-methyl-2-[2(S)-((1,1-dimethylethoxy)carbonyl)amino-3-acetamidomethylmercaptopropanoyl]aminomethyl-5-(2'-fluorophenyl)-2,3-dihydro-1H-1,4-benzodiazepine hemihydrate], for which the half-inhibitory concentration (IC50) at CCK receptor (pancreas) worked out at 24 µM.

In the case of `CN1c2ccccc2C(c2ccccc2F)=NCC1CNC(=O)CCC(=O)OCc1ccccc1` (stereo not drawn) [Example 12, 1-methy-2-benzoylsuccinoylaminomethyl-5-(2'-fluorophenyl)-2,3-dihydro-1H-1,4-benzodiazepine], the IC50 on CCK receptor (pancreas) (setting [2]) came to 45 µM; on CCK receptor (brain) it was 55 µM.

As to `CC(=O)NCSCC(=O)NCC1CN=C(c2ccccc2F)c2ccccc2N1C` (stereo not drawn) [Example 13, 1-methyl-2-(acetamidomethylmercaptoacetyl)aminomethyl-5-(2'-fluorophenyl-2,3-dihydro-1H-1,4-benzodiazepine hydrate], the half-inhibitory concentration (IC50) is 100 µM at CCK receptor (pancreas) (setting [2]) and about 100 µM on CCK receptor (brain) (read-out: IC50 CCK, Brain).

For `CN1c2ccccc2C(c2ccccc2F)NCC1CNC(=O)c1ccsc1` (stereo not drawn) [Example 14, 1-methyl-2-(3-thiophenecarbonyl)aminomethyl-5-(2'-fluorophenyl)-2,3,4,5-tetrahydro-1H-1,4-benzodiazepine], the IC50 on CCK receptor (pancreas) (setting [2]) is 4.8 µM; at CCK receptor (brain) (read-out: IC50 CCK, Brain) it was about 100 µM.

On to `CSCC[C@H](N)C(=O)N[C@@H](CC(=O)O)C(=O)N[C@@H](Cc1ccccc1)C(N)=O` [Met-Asp-Phe-NH2] (H-Met-Asp-Phe-NH2), for which the CCK antagonism entry with CCK-receptor is recorded as “can function as CCK antagonists”.

As for `CCCC(=O)Nc1nc2c(ncn2[C@@H]2O[C@@H]3COP(=O)(O)O[C@H]3[C@H]2OC(=O)CCC)c(=O)[nH]1` [dibutyryl cyclic GMP], the CCK antagonism result with CCK-receptor is listed as “most potent”.

As to `c1cnc2c(c1)ccc1cccnc12` [o-phenanthroline, reference compound], the “effect on the ^125 I-CCK receptor binding assay” value on CCK receptor (pancreas) is recorded as “no effect”.

Take `O=S(=O)(F)Cc1ccccc1` [phenyl-methane sulfonyl fluoride, reference compound]: the “effect on the ^125 I-CCK receptor binding assay” value at CCK receptor (pancreas) was “no effect”.
